Entries after “also recorded” stand apart in the source; their conditions may differ. Where a name gives a salt, the structure may show the parent alone.
Tests used:
phospho-p38, p-JNK = test: Immunoblot of MAPK signaling in BaF3 and BaF3-BA cells; assay type: cell-based, mouse; conditions: with or without IL-3
Method: Western blotting. 4-6 million cells were collected, and whole-cell extracts were prepared using lysis buffer supplemented with a protease-inhibitor cocktail (Roche) and phosphatase-inhibitor cocktail 2 (Sigma-Aldrich), as described previously (Azam, M., Seeliger, M. A., Gray, N. S., Kuriyan, J. & Daley, G. Q. Activation of tyrosine kinases by mutation of the gatekeeper threonine. Nat. Struct. Mol. Biol. 15, 1109-1118 (2008)). The proteins were resolved on 10% SDS-PAGE gels and transferred to nitrocellulose membranes (Bio-Rad). Membranes were blocked in TBST with 5% nonfat milk and probed with appropriate antibodies as indicated. Densitometry was carried out using ImageJ software.

Dusp1 = test: In vitro BCI-resistance screening of randomly mutagenized Dusp1 in BaF3-BA cells; assay type: cell-based, mouse
Method: To determine the relevant target of BCI more conclusively, we performed in vitro drug-resistant screening to select for BCI-resistant mutations in Dusp1. BaF3-BA cells transfected with an expression library of randomly mutagenized Dusp1 construct were used for the selection of mutations conferring resistance to different concentrations of BCI (FIG. 19D). […] 27 clones that emerged in 1.5 μM of BCI were randomly selected and further analyzed. Dose-response analysis confirmed their resistance to BCI (FIG. 19F). Sequencing of the Dusp1 gene in these clones identified four different substitution mutations (E19R, C24G, V83G, and E112R) and two deletion mutations at the N terminus (Δ2-8 and Δ2-28; FIG. 19G). Because most resistant clones carried two or more mutations, we generated clones with individual mutations for further analysis. […] Furthermore, an unbiased docking of BCI using a structural model of the Dusp1 rhodanese domain identified the putative site to which BCI binds, with a predicted free energy of ΔG=−7.63 (FIG. 18E).
Random mutagenesis and screening of Dusp1 mutants. A Gateway entry clone containing mouse Dusp1 complementary DNA was purchased from the Harvard PalsmiD repository (cat. #MmCD00312825). The Dusp1 coding region was transferred into the retroviral gateway vector pMSCV-Ires-GFP.GW59 by recombination cloning. […] Mutants isolated in the screen were engineered into the pMSCV-Dusp1-Ires-GFP vector, using the QuikChange II XL Site-Directed Mutagenesis Kit (Agilent). The sequence of each point mutation was confirmed by sequence analysis.

HCC827 cells = test: HCC827 cell survival (WST assay); conditions: DFC, BCI and erlotinib alone and in combination
phospho-p38 = test: Pharmacodynamic phospho-p38 analysis in leukemic mice; assay type: in vivo, mouse; conditions: peripheral blood mononuclear cells, 6 h after BCI 10 mg/kg i.p.
Method: Pharmacodynamic analysis of Dusp1 and c-Fos targets. Phospho-p38 analysis. Three leukemic mice (8-12 weeks old), which had received transplants of BCR-ABL-expressing Kit+ cells, were injected with BCI (10 mg/kg) by intraperitoneal injection 4 weeks after transplantation. Phospho-p38 levels were quantified in peripheral blood MNCs using the Phosflow kit (BD Biosciences), according to the supplier's instructions. In brief, blood was collected from each mouse before and 6 hours after drug injection. Mononuclear cells were isolated by RBC depletion: RBCs were lysed twice using 4 ml Pharmlyse solution (BD Biosciences) per 100 μl of peripheral blood by mixing and incubated on ice for 5 min. After the second lysis step, cell pellets were washed with 1 ml 2% BSA in PBS followed by fixation using 100 μl of fixation and permeabilization solutions (BD Biosciences) for 20 min at 4° C. in the dark. The pellets were washed with 1 ml of 1×BD Perm/wash buffer. After fixation, the cells were blocked using 300 μl 2% BSA in Perm/wash buffer (BD Biosciences) at room temperature for 20 min. […] Data were acquired by FACS on Fortessa instrument, and the data were analyzed by FlowJo software. The mean fluorescence intensity (MFI) of the IgG control was deducted from the MFI of the experimental samples. […] Quantitative gene-expression analysis of target genes. […]

[1] = mouse, in vivo; cited from earlier work
K562 = test: Survival of K562 cells treated with imatinib with or without erythropoietin; assay type: cell-based, human; conditions: erythropoietin treatment
[2] = system: CML CD34+ cells from patient CP4; test: Mouse model of CML with patient-derived CD34+ cells; assay type: in vivo, human; conditions: treatment for 3 weeks; imatinib 75 mg/kg, DFC and BCI 10 mg/kg twice daily i.p.
Method: To extend these findings to human cells, we tested the effect of c-FOS and DUSP1 inhibition on the survival of primary CML patient samples (Table 2).
Mouse models of CML with patient-derived cells. 3 million CD34+ cells from CML patient CP4 (described in Table 1) were transplanted into sublethally irradiated 8-week-old NSG mice. 2 weeks after transplantation, leukemic engraftment in bone marrow was determined by FACS using mouse and human specific antibodies against CD45. […] Drugs were diluted in PBS (vehicle) and administered by intraperitoneal injection twice daily. […]

[3] = system: Fos, Dusp1, and Zfp36 expression; test: Real-time qPCR of Fos, Dusp1 and Zfp36 in BaF3-BA cells; assay type: cell-based, mouse
Method: Real-time qPCR analysis. Candidate genes picked by microarray analysis were validated by real time qPCR. Total RNA was isolated as described above. The RNA was first subjected to DNase treatment using DNA-free DNase kit (Ambion, Life technologies). 2 μg of total RNA was converted to cDNA with Superscript III first-strand synthesis kit (Life technologies). qPCR reactions were performed with the human gene-specific primers using the SYBR green method and using a Mastercycler RealPlex2 instrument (Eppendorf). All PCR reactions were performed in triplicate and the real-time data was normalized to β-actin expression.

[4] = system: CML patient cells (CP1, CP4); test: LTC-IC assay, CML patient samples; assay type: cell-based, human
Method: LTC-IC assay. The LTC-IC assay was performed according to the instruction manual of StemCell Technologies. […] After 24 h, the cells were washed in human long-term culture medium (HLTM; MyeloCult H5100 media containing 1 μM hydrocortisone) and were plated on irradiated MS-5 stromal cells. Cultures were maintained for 5 weeks with weekly half-medium changes. Cells were then harvested, counted, and transferred to methylcellulose-containing media (MethoCult Express, StemCell Technologies) for colony-forming assays. At the end of week 5, adherent and nonadherent cells were isolated and plated in methylcellulose (METHOCULT H4434 classic, stem cell technology) for CFU analysis in triplicate. Plates were incubated at 37° C., and colonies were scored 2 weeks after plating.

SKMEL28 = SKMEL28 dose response / cell survival (WST assay); assay type: cell-based; conditions: HGF
Method: (§1) Cell-proliferation assay. […] The cells were incubated for 60 h.
(§2) Time at 0 hours represents the level of expression without TKI+/−GF. Note that the growth factors induce higher expression of c-FOS in all cell lines and DUSP1 in RT4 at 0 hours, while the addition of both TKI and growth factors induced both c-FOS and DUSP1. […] Note inhibition of c-FOS and DUSP1 is sufficient to kill AU565 cells, while their inhibition in RT4 and SKMEL28 cells restored the TKI sensitivity in the presence of growth factors.

BaF3-BA cells = test: Cell proliferation/survival assay of BaF3 cells expressing BCR-ABL (WST-1); assay type: cell-based, mouse; conditions: inhibitor 500 nM
EGFR = conditions: NSCLC patients with activating EGFR mutations; cited from earlier work
AU565 = AU565 dose response / cell survival (WST assay); assay type: cell-based; conditions: neuregulin 1-NRG1
Method: as §1, §2

RT4 = RT4 dose response / cell survival (WST assay); assay type: cell-based; conditions: EGF
Method: as §1, §2

## O=C1/C(=C/c2ccccc2)C(NC2CCCCC2)c2ccccc21 (stereo not shown) [BCI, (E)-2-benzylidene-3-(cyclohexylamino)-2,3-dihydro-1H-inden-1-one]
phospho-p38, p-JNK; BaF3-BA cells
  phospho-JNK: decreased
phospho-p38, p-JNK; BaF3 and BaF3-BA cells
  phospho-p38 levels: enhanced; also recorded: increased
Dusp1; 1 μM BCI
  frequency of resistant clones: 1,200 clones per million cells
Dusp1; 1.5 μM BCI
  frequency of resistant clones: 27 clones per million cells
Dusp1; 2 μM of BCI
  frequency of resistant clones: did not yield any resistant clones
HCC827 cells
  cell survival: sensitized the cells for erlotinib
phospho-p38
  increase in phospho-p38 levels: 4-8 fold

## COc1cc(/C=C/C(=O)C(=Cc2ccc(F)c(F)c2)C(=O)/C=C/c2ccc(O)c(OC)c2)ccc1O [DFC, difluorinated curcumin]
[1]
  pharmacokinetics relative to curcumin: superior pharmacokinetics

## Cc1ccc(NC(=O)c2ccc(CN3CCN(C)CC3)cc2)cc1Nc1nccc(-c2cccnc2)n1 [Imatinib, Imatinib mesylate]
K562
  response to imatinib with erythropoietin: conferred imatinib resistance
[2]
  effect on human leukemic cells in bone marrow: ineffective
[3]; imatinib alone
  expression of Fos, Dusp1 and Zfp36: downregulated
[3]; imatinib plus growth factor (IL-3)
  higher expression of Fos, Dusp1 and Zfp36 as compared to BaF3-BA plus imatinib: 4-5 fold
[4]; CP1 cells
  LTC-IC activity as compared to vehicle: increased
[4]; sample CP4
  LTC-IC activity as compared to vehicle: significant decrease

## CCCS(=O)(=O)Nc1ccc(F)c(C(=O)c2c[nH]c3ncc(Cl)cc23)c1F [PLX4720]
SKMEL28
  response to PLX4720 in the presence of growth factor: resistance

## Oc1ccc(-c2nc(-c3ccncc3)c(-c3ccc(F)cc3)[nH]2)cc1 [SB202190]
BaF3-BA cells
  imatinib resistance conferred by inhibitor: conferred imatinib resistance

## C#Cc1cccc(Nc2ncnc3cc(OCCOC)c(OCCOC)cc23)c1 [erlotinib]
EGFR
  response rate: approximately 70%

## CS(=O)(=O)CCNCc1ccc(-c2ccc3ncnc(Nc4ccc(OCc5cccc(F)c5)c(Cl)c4)c3c2)o1 [lapatinib]
AU565
  response to lapatinib in the presence of growth factor: resistance
RT4
  response to lapatinib in the presence of growth factor: resistance
